Here are results for 17 compounds from patent US8889676B2, “3-ureidoisoquinolin-8-yl derivatives” (Actelion Pharmaceuticals Ltd., priority 2011, dated 2014).

In brackets after ≈: the same amount, converted by molar mass.

This assay relates to S. pneumoniae ATCC 49619. As to the kind of experiment: Minimal inhibitory concentration (MIC) by broth microdilution (CLSI M7-A7). Type of assay: cell-based, Streptococcus pneumoniae. The settings on record: Streptococcus pneumoniae, ATCC49619; cation-adjusted Mueller Hinton Broth supplemented with 3% (v/v) lysed horse blood; microdilution method. In a few lines:
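Broth microdilution per CLSI M7-A7 in cation-adjusted Mueller-Hinton broth with 3% (v/v) lysed horse blood for S. pneumoniae. MIC in mg/l.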
On the technique in general: Dilution methods test growth across graded concentrations, often in twofold steps.
In general, MIC refers to the lowest concentration found to suppress growth. The low end stands for inhibition by little substance, the high end for a need for much substance. For `CCNC(=O)Nc1cc2c(-c3ccnc(C)c3)ccc(CN(C)C(=O)OCCOC)c2cn1` [Example 181, [3-(3-ethyl-ureido)-5-(2-methyl-pyridin-4-yl)-isoquinolin-8-ylmethyl]-methyl-carbamic acid 2-methoxy-ethyl ester], the minimum inhibitory concentration (MIC) amounted to 8 µg/mL (≈ 17.7 µM). Next, `CCNC(=O)Nc1cc2c(-c3ccncc3)ccc(CNC(=O)OCCC(N)=O)c2cn1` [Example 182, [3-(3-ethyl-ureido)-5-pyridin-4-yl-isoquinolin-8-ylmethyl]-carbamic acid 2-carbamoyl-ethyl ester]: 2 µg/mL (≈ 4.58 µM); `CCNC(=O)Nc1cc2cccc(CNC(=O)c3cnn[nH]3)c2cn1` [Example 183, 3H-[1,2,3]triazole-4-carboxylic acid [3-(3-ethyl-ureido)-isoquinolin-8-ylmethyl]-amide]: 1 µg/mL (≈ 2.95 µM); `CCNC(=O)Nc1cc2c(-c3ccncc3F)ccc(CNC(=O)OC)c2cn1.Cl` [Example 184, [3-(3-ethyl-ureido)-5-(3-fluoro-pyridin-4-yl)-isoquinolin-8-ylmethyl]-carbamic acid methyl ester hydrochloride]: 1 µg/mL. `CCNC(=O)Nc1cc2c(-c3ccncc3C)ccc(CNC(=O)OC)c2cn1.Cl` [Example 185, [3-(3-ethyl-ureido)-5-(3-methyl-pyridin-4-yl)-isoquinolin-8-ylmethyl]-carbamic acid methyl ester hydrochloride]: the MIC was 2 µg/mL. Next, `CCNC(=O)Nc1cc2c(-c3cc(F)ncc3C)ccc(CNC(=O)OC)c2cn1.Cl` [Example 186, [3-(3-ethyl-ureido)-5-(2-fluoro-5-methyl-pyridin-4-yl)-isoquinolin-8-ylmethyl]-carbamic acid methyl ester hydrochloride]: 2 µg/mL. Under `CCNC(=O)Nc1cc2c(-c3ccnc(F)c3C)ccc(CNC(=O)OC)c2cn1.Cl` [Example 187, [3-(3-ethyl-ureido)-5-(2-fluoro-3-methyl-pyridin-4-yl)-isoquinolin-8-ylmethyl]-carbamic acid methyl ester hydrochloride] stands 4 µg/mL; under `CCNC(=O)Nc1cc2c(-c3cc(C)ncc3F)ccc(CNC(=O)OC)c2cn1.Cl` [Example 188, [3-(3-ethyl-ureido)-5-(5-fluoro-2-methyl-pyridin-4-yl)-isoquinolin-8-ylmethyl]-carbamic acid methyl ester hydrochloride], 2 µg/mL; under `CCNC(=O)Nc1cc2c(-c3ccnc(C)c3C)ccc(CNC(=O)OC)c2cn1.Cl` [Example 189, [5-(2,3-dimethyl-pyridin-4-yl)-3-(3-ethyl-ureido)-isoquinolin-8-ylmethyl]-carbamic acid methyl ester hydrochloride], 8 µg/mL. `CCNC(=O)Nc1cc2c(-c3cc(C)ncc3C)ccc(CNC(=O)OC)c2cn1.Cl` [Example 190, [5-(2,5-dimethyl-pyridin-4-yl)-3-(3-ethyl-ureido)-isoquinolin-8-ylmethyl]-carbamic acid methyl ester hydrochloride]: the lowest concentration to inhibit growth (MIC) was 4 µg/mL. Under `CCNC(=O)Nc1cc2c(-c3cc(F)ncc3F)ccc(CNC(=O)OC)c2cn1.Cl` [Example 191, [5-(2,5-difluoro-pyridin-4-yl)-3-(3-ethyl-ureido)-isoquinolin-8-ylmethyl]-carbamic acid methyl ester hydrochloride] stands 2 µg/mL. Under `CCNC(=O)Nc1cc2c(-c3ccnc(CCCO)c3)ccc(CNC(=O)OC)c2cn1` [Example 192, {3-(3-ethyl-ureido)-5-[2-(3-hydroxy-propyl)-pyridin-4-yl]-isoquinolin-8-ylmethyl}-carbamic acid methyl ester] stands 2 µg/mL (≈ 4.57 µM). Under `CCNC(=O)Nc1cc2c(-c3ccnc(CC(=O)NC)c3)ccc(CNC(=O)OC)c2cn1` [Example 193, [3-(3-ethyl-ureido)-5-(2-(methylcarbamoyl-methyl)-pyridin-4-yl)-isoquinolin-8-ylmethyl]-carbamic acid methyl ester] stands 8 µg/mL (≈ 17.8 µM). For `CCNC(=O)Nc1cc2c(-c3ccnc(CC(=O)N(C)C)c3)ccc(CNC(=O)OC)c2cn1` [Example 194, [5-[2-(dimethylcarbamoyl-methyl)-pyridin-4-yl]-3-(3-ethyl-ureido)-isoquinolin-8-ylmethyl]-carbamic acid methyl ester], the MIC stood at 4 µg/mL (≈ 8.61 µM). Under `CCNC(=O)Nc1cc2c(-c3ccnc(CCC(=O)NC)c3)ccc(CNC(=O)OC)c2cn1` [Example 195, {3-(3-ethyl-ureido)-5-[2-(2-methylcarbamoyl-ethyl)-pyridin-4-yl]-isoquinolin-8-ylmethyl}-carbamic acid methyl ester] stands 4 µg/mL (≈ 8.61 µM); under `CCNC(=O)Nc1cc2c(-c3ccnc(CCC(=O)N(C)C)c3)ccc(CNC(=O)OC)c2cn1` [Example 196, [5-[2-(2-dimethylcarbamoyl-ethyl)-pyridin-4-yl]-3-(3-ethyl-ureido)-isoquinolin-8-ylmethyl]-carbamic acid methyl ester], 4 µg/mL (≈ 8.36 µM); under `CCNC(=O)Nc1cc2c(-c3ccnc(C#N)c3)ccc(CNC(=O)OC)c2cn1` [Example 197, [5-(2-cyano-pyridin-4-yl)-3-(3-ethyl-ureido)-isoquinolin-8-ylmethyl]-carbamic acid methyl ester], 2 µg/mL (≈ 4.95 µM).
